Patent US9951046B2, “TRPA1 modulators” (Algomedix, Inc., priority 2014, dated 2018)
Read-outs that look alike come from different tables or passages of the source.

Target: T1, human TRPA1 (Homo sapiens, UniProt O75762)
T1 construct: expressed in transfected cells
Test: Cell-based functional intracellular calcium ([Ca2+]i) assay, Fluo-4/Fluo-8, FlexStation, challenge with reference TRPA1 agonist (FFA, AITC or 4-HNE)
Procedure: A stable HEK293 cell line that expresses human TRPA1 in an inducible manner was employed in this assay. […] The expression of TRPA1 was induced by including 1 μg/ml doxycycline in the culture medium. For the induced cells, ruthenium red (5 μM) was also added to minimize the constitutive TRPA1 channel activity and cells were used 14-18 hrs after induction. To measure [Ca^2+]i changes, cells were seeded in wells of 96-well plates at ˜100,000 cells/well and grown for 14-18 hrs to reach confluency. To prevent cell loss from subsequent washing, the wells were treated with 20 μg/ml polyornithine (MW>30,000, Sigma, St Louis, Mo.) for >15 min and rinsed once with Hank's balanced salt solution without Mg^2+ and Ca^2+. […] In some experiments, Fluo-8-AM was used instead of Fluo-4-AM as the calcium-sensitive fluorescent probe. Probenecid (2 mM) was included in all solutions to prevent the leakage of Fluo-4 or Fluo-8 from the cells. At the end of the incubation, cells were washed three times with ECS and placed in 80 μL of the same solution. Fluorescence changes were measured using a fluid handling integrated fluorescence plate reader, FlexStation (Molecular Devices, Sunnyvale, Calif.). Stock solutions of test compounds were initially solubilized in 100% DMSO and then serially diluted to achieve the desired final concentration. […] Drugs were diluted into ECS at 2× or 3× the desired final concentrations and delivered to the sample plate by an integrated robotic 8-channel pipettor at preprogrammed time points. […] Experiments were performed at 20-25° C. For certain experiments, 0.1% BSA was included with the cells and test compounds.
The kinetic data obtained at each test concentration of drug represents a series of fluorescent intensities as a function of time.
Using a sequential addition protocol, test compounds were initially applied to the cells loaded with Fluo-4 or Fluo-8 and fluorescence changes in each well monitored for 2.5 min. The plate was read again in a kinetic mode after a 15-30 min incubation with the test compounds after obtaining baseline values (about 30 s) and subsequent addition of challenge with a reference TRPA1 agonist. Reference TRPA1 agonists in testing each compound included at least one of flufenamic acid (FFA), allyl isothiocyanate (AITC) and 4-hydroxynonenal (4-HNE).
Antagonist activity can be expressed in terms of IC50 with respect to TRPA1 and agonist activity can be expressed in terms of EC50 with respect to TRPA1.

[1] = HEK293 cells expressing human TRPA1, IC50 class after addition of reference TRPA1 agonist (FFA, AITC or 4-HNE), read-out: human TRPA1-HEK Activity

T1 sequence (O75762 whole entry): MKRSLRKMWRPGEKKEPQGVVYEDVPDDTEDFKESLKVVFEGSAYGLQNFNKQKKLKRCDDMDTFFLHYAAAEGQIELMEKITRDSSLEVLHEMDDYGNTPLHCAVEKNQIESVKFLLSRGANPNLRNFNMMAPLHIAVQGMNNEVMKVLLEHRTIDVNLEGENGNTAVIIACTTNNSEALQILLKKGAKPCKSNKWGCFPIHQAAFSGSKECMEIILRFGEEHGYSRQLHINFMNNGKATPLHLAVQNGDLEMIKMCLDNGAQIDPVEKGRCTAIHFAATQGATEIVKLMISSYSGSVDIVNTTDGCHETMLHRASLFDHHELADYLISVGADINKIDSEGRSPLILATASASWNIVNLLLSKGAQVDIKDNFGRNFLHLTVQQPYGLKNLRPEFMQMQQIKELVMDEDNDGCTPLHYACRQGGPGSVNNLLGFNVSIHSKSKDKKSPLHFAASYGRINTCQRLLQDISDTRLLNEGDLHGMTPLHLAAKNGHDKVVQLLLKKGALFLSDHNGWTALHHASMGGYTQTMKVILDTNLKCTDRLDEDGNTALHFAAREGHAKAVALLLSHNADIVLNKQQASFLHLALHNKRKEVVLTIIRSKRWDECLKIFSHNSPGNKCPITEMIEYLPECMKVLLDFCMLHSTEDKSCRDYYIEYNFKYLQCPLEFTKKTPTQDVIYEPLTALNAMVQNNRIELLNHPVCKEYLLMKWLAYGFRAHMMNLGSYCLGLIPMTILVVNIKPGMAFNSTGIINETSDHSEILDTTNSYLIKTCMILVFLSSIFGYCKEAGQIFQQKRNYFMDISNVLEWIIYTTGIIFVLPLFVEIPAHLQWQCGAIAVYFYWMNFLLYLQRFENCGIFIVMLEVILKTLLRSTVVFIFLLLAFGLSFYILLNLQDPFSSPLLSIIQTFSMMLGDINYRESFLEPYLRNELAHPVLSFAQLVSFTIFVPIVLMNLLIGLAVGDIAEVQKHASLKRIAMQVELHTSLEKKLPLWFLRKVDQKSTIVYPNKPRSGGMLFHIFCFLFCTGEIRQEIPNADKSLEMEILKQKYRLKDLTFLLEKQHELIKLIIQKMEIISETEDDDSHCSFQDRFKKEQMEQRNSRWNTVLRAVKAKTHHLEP

| Compound | IC50 [1] [µM] | IC50 [µM] |
| --- | --- | --- |
| O=C(c1cc(-c2ccncc2)n(-c2ccc(C(F)(F)F)nc2)n1)N1CCC2(CC1)C(=O)NCN2c1ccc(F)cc1 [Compound 120] | 5 to 25 | – |
| O=C(c1cc(-c2ccncc2)n(-c2ccc(C(F)(F)F)nc2)n1)N1CCC2(CC1)C(=O)NCN2c1ccc(Cl)cc1 [Compound 121] | > 25 | – |
| O=C(c1cc(-c2ccncc2)n(-c2ccc(C(F)(F)F)nc2)n1)N1CCC2(CC1)OCc1ccccc12 [Compound 122] | > 25 | – |
| O=C1OC2(CCN(C(=O)c3cc(-c4ccncc4)n(-c4ccc(C(F)(F)F)nc4)n3)CC2)c2ccccc21 [Compound 123] | > 25 | – |
| O=C1OC2(CCN(C(=O)c3cc(-c4ccncc4)n(-c4ccc(C(F)(F)F)nc4)n3)CC2)c2ccc(Cl)cc21 [Compound 124] | > 25 | – |
| O=C(c1cc(-c2ccncc2)n(-c2ccc(C(F)(F)F)nc2)n1)N1CC(=O)N2CCc3ccccc3C2C1 (stereo not shown) [Compound 125] | > 25 | – |
| Cn1c(=O)n(C2CCN(C(=O)c3cc(-c4ccncc4)n(-c4ccc(C(F)(F)F)nc4)n3)CC2)c2ccccc21 [Compound 126] | > 25 | – |
| O=C(c1cc(-c2ccncc2)n(-c2ccc(C(F)(F)F)nc2)n1)N1CCC(N2C(=O)OC[C@H]2c2ccccc2)CC1 [Compound 127] | > 25 | – |
| O=C(c1cc(-c2ccncc2)n(-c2ccc(C(F)(F)F)nc2)n1)N1CCC2(CC1)SCCS2 [Compound 128] | > 25 | – |
| O=C(c1cc(-c2ccncc2)n(-c2cnccn2)n1)N1CCC(c2nc3ccccc3o2)CC1 [Compound 129] | > 25 | – |
| O=C(Nc1ccc2c(c1)OC(F)(F)O2)c1cc(-c2ccncc2)n(-c2cnccn2)n1 [Compound 130] | 5 to 25 | – |
| CN1C(=O)COc2cc(NC(=O)c3cc(-c4ccncc4)n(-c4cnccn4)n3)ccc21 [Compound 131] | > 25 | – |
| Cn1c(=O)c(=O)n(C)c2cc(NC(=O)c3cc(-c4ccncc4)n(-c4cnccn4)n3)ccc21 [Compound 133] | > 25 | – |
| O=C(Nc1ccc2c(c1)COC2=O)c1cc(-c2ccncc2)n(-c2cnccn2)n1 [Compound 134] | > 25 | – |
| CC1COC2(CCN(C(=O)c3cc(-c4ccncc4)n(-c4cnccn4)n3)CC2)O1 (stereo not shown) [Compound 135] | – | > 25 |
| O=C(c1cc(-c2ccncc2)n(-c2cnccn2)n1)N1CCN2C(=O)OC[C@@H]2C1 [Compound 136] | 5 to 25 | – |
| O=C(c1cc(-c2ccncc2)n(-c2cnccn2)n1)N1CCC2(CC1)NCN(c1ccccc1)C2=O [Compound 137] | > 25 | – |
| CCCC1COC2(CCN(C(=O)c3cc(-c4ccncc4)n(-c4cnccn4)n3)CC2)O1 (stereo not shown) [Compound 138] | – | > 25 |
| CN1C(=O)NC2(CCN(C(=O)c3cc(-c4ccncc4)n(-c4cnccn4)n3)CC2)C1=O [Compound 139] | > 25 | – |
| O=C(c1cc(-c2ccncc2)n(-c2cc(F)c(F)c(F)c2)n1)N1CCC2(CC1)C(=O)NCN2c1ccccc1 [Compound 140] | 5 to 25 | – |

| Compound | IC50 [1] [µM] | IC50 [µM] |
| --- | --- | --- |
| O=C(c1cc(-c2ccncc2)n(-c2cc(F)c(F)c(F)c2)n1)N1CCC(n2c(=O)[nH]c3ccccc32)CC1 [Compound 141] | 5 to 25 | – |
| O=C(c1cc(-c2ccncc2)n(-c2cc(F)c(F)c(F)c2)n1)N1CCC2(CC1)OCCO2 [Compound 142] | – | > 25 |
| O=C(c1cc(-c2ccncc2)n(-c2ccc(C(F)(F)F)cc2)n1)N1CCC2(CC1)C(=O)NCN2c1ccccc1 [Compound 143] | 5 to 25 | – |
| O=C(c1cc(-c2ccncc2)n(-c2ccc(C(F)(F)F)cc2)n1)N1CCC(n2c(=O)[nH]c3ccccc32)CC1 [Compound 144] | 5 to 25 | – |
| O=C(c1cc(-c2ccncc2)n(-c2ccc(C(F)(F)F)cc2)n1)N1CCC2(CC1)OCCO2 [Compound 145] | – | 5 to 25 |
| O=C(c1cc(-c2ccncc2)n(-c2cccc(C(F)(F)F)c2)n1)N1CCC2(CC1)C(=O)NCN2c1ccccc1 [Compound 146] | 5 to 25 | – |
| O=C(c1cc(-c2ccncc2)n(-c2cccc(C(F)(F)F)c2)n1)N1CCC(n2c(=O)[nH]c3ccccc32)CC1 [Compound 147] | > 25 | – |
| O=C(c1cc(-c2ccncc2)n(-c2cccc(C(F)(F)F)c2)n1)N1CCC2(CC1)OCCO2 [Compound 148] | – | > 25 |
| O=C(c1cc(-c2ccncc2)n(-c2ccc(F)c(F)c2)n1)N1CCC2(CC1)C(=O)NCN2c1ccccc1 [Compound 149] | 5 to 25 | – |
| O=C(c1cc(-c2ccncc2)n(-c2ccc(F)c(F)c2)n1)N1CCC(n2c(=O)[nH]c3ccccc32)CC1 [Compound 150] | 5 to 25 | – |
| O=C(c1cc(-c2ccncc2)n(-c2ccc(F)c(F)c2)n1)N1CCC2(CC1)OCCO2 [Compound 151] | – | > 25 |
| O=C(c1cc(-c2ccncc2)n(-c2ccc(F)cc2F)n1)N1CCC2(CC1)C(=O)NCN2c1ccccc1 [Compound 152] | > 25 | – |
| O=C(c1cc(-c2ccncc2)n(-c2ccc(F)cc2F)n1)N1CCC(n2c(=O)[nH]c3ccccc32)CC1 [Compound 153] | > 25 | – |
| O=C(c1cc(-c2ccncc2)n(-c2ccc(F)cc2F)n1)N1CCC2(CC1)OCCO2 [Compound 154] | – | > 25 |
| O=C(c1cc(-c2ccncc2)n(-c2ccc3c(c2)OCO3)n1)N1CCC2(CC1)C(=O)NCN2c1ccccc1 [Compound 155] | > 25 | – |
| O=C(c1cc(-c2ccncc2)n(-c2ccc3c(c2)OCO3)n1)N1CCC(n2c(=O)[nH]c3ccccc32)CC1 [Compound 156] | > 25 | – |
| O=C(c1cc(-c2ccncc2)n(-c2ccc3c(c2)OCO3)n1)N1CCC2(CC1)OCCO2 [Compound 157] | – | > 25 |
| O=C(c1cc(-c2ccncc2)n(-c2cc(C(F)(F)F)cc(C(F)(F)F)c2)n1)N1CCC2(CC1)C(=O)NCN2c1ccccc1 [Compound 158] | 5 to 25 | – |
| O=C(c1cc(-c2ccncc2)n(-c2cc(C(F)(F)F)cc(C(F)(F)F)c2)n1)N1CCC(n2c(=O)[nH]c3ccccc32)CC1 [Compound 159] | 5 to 25 | – |
| O=C(c1cc(-c2ccncc2)n(-c2cc(C(F)(F)F)cc(C(F)(F)F)c2)n1)N1CCC2(CC1)OCCO2 [Compound 160] | – | > 25 |

| Compound | IC50 [1] [µM] | IC50 [µM] |
| --- | --- | --- |
| O=C(c1cc(-c2ccncc2)n(-c2ccc(C(F)(F)F)c(F)c2)n1)N1CCC2(CC1)C(=O)NCN2c1ccccc1 [Compound 161] | 5 to 25 | – |
| O=C(c1cc(-c2ccncc2)n(-c2ccc(C(F)(F)F)c(F)c2)n1)N1CCC(n2c(=O)[nH]c3ccccc32)CC1 [Compound 162] | 5 to 25 | – |
| O=C(c1cc(-c2ccncc2)n(-c2ccc(C(F)(F)F)c(F)c2)n1)N1CCC2(CC1)OCCO2 [Compound 163] | – | 5 to 25 |
| O=C(c1cc(-c2ccncc2)n(-c2ccc(C(F)(F)F)nc2)n1)N1CCC2(CC1)C(=O)NCN2c1ccccc1 [Compound 164] | 5 to 25 | – |
| O=C(c1cc(-c2ccncc2)n(-c2ccc(C(F)(F)F)nc2)n1)N1CCC(n2c(=O)[nH]c3ccccc32)CC1 [Compound 165] | > 25 | – |
| O=C(c1cc(-c2ccncc2)n(-c2ccc(C(F)(F)F)nc2)n1)N1CCC2(CC1)OCCO2 [Compound 166] | – | > 25 |
| O=C(c1cc(-c2ccncc2)n(-c2cnccn2)n1)N1CCC2(CC1)C(=O)NCN2c1ccccc1 [Compound 167] | 5 to 25 | – |
| O=C(c1cc(-c2ccncc2)n(-c2cnccn2)n1)N1CCC(n2c(=O)[nH]c3ccccc32)CC1 [Compound 168] | 5 to 25 | – |
| O=C(c1cc(-c2ccncc2)n(-c2cnccn2)n1)N1CCC2(CC1)OCCO2 [Compound 169] | – | > 25 |
| O=C(c1cc(-c2ccncc2)n(-c2ccccc2)n1)N1CCC2(CC1)OCc1ccccc12 [Compound 170] | > 25 | – |
| O=C1OC2(CCN(C(=O)c3cc(-c4ccncc4)n(-c4ccccc4)n3)CC2)c2ccccc21 [Compound 171] | > 25 | – |
| Cn1c(=O)n(C2CCN(C(=O)c3cc(-c4ccncc4)n(-c4ccccc4)n3)CC2)c2ccccc21 [Compound 172] | > 25 | – |
| O=C(c1cc(-c2ccncc2)n(-c2ccccc2)n1)N1CCC(N2C(=O)OC[C@H]2c2ccccc2)CC1 [Compound 173] | > 25 | – |
| CN1C(=O)NC2(CCN(C(=O)c3cc(-c4ccncc4)n(-c4ccccc4)n3)CC2)C1=O [Compound 174] | > 25 | – |
| O=C(c1cc(-c2ccncc2)n(-c2cc(F)c(F)c(F)c2)n1)N1CCC(n2c(=O)[nH]c3cc(C(F)(F)F)ccc32)CC1 [Compound 176] | 5 to 25 | – |
| O=C(c1cc(-c2ccncc2)n(-c2ccc(C(F)(F)F)cc2)n1)N1CCC(n2c(=O)[nH]c3ccc(F)c(F)c32)CC1 [Compound 177] | 0.001 to 5 | – |
| O=C(c1cc(-c2ccncc2)n(-c2ccc(C(F)(F)F)cc2)n1)N1CCC(n2c(=O)[nH]c3cc(C(F)(F)F)ccc32)CC1 [Compound 178] | 5 to 25 | – |
| O=C(c1cc(-c2ccncc2)n(-c2ccc(C(F)(F)F)c(F)c2)n1)N1CCC2(CC1)C(=O)NCN2c1ccc(OC(F)(F)F)cc1 [Compound 179] | > 25 | – |
